Measurements taken from patent US12012392B2, “Sulfonamide carboxamide compounds” (Inflazome Limited, priority 2017, dated 2024).
Where two headings read alike, the source gives them in different places.

Tests used:
[1] = PK protocol (intravenous and oral administration); type: in vivo, male Sprague Dawley rats; settings: male, Sprague Dawley, plasma, rat; for Vd: read-out: Vdss
Experimental: Pharmacokinetic parameters were determined in male Sprague Dawley rats (Charles River, UK, 250-350 g; or Vital River Laboratory Animal Technology Co Ltd, Beijing, China, 7-9 weeks old). Animals were individually housed during the study and maintained under a 12 h light/dark cycle. Animals had free access to food and water except that some orally dosed animals were food deprived overnight prior to the study. For intravenous administration, compounds were formulated as a solution in water or DMSO:PBS [10:90] in 2 mL/kg dosing volume and administered via tail vein. For oral administration, compounds were formulated as a solution in water or DMSO:water [10:90] in 5 mL/kg dosing volume and administered orally.
Serial blood samples (about 120-300 μL) were taken from each animal at each of 8 time-points post dose (0.083, 0.25, 0.5, 1, 2, 4, 8 and 24 h) or at each of 12 time-points post dose (0.03, 0.1, 0.17, 0.25, 0.5, 1, 2, 4, 6, 8, 12 and 24 h) or pre-dose and at each of 9 time-points post dose (0.25, 0.5, 1, 2, 4, 6, 8, 12 and 24 h). Samples were held on ice for no longer than 30 minutes before centrifugation (10,000 rpm (8,385 g) for 3 minutes; or 5,696 rpm (3,000 g) for 15 minutes) for plasma generation. Plasma was frozen on dry ice prior to bioanalysis. PK parameters were generated from LC-MS/MS data using Dotmatics or Phoenix WinNonlin 6.3 software.

NLRP3 [2] = molecular target: T1, NLRP3 (Homo sapiens, UniProt Q96P20); test: THP-1 cells pyroptosis assay; type: cell-based; parameters: Seed THP-1 cells (25,000 cells/well) containing 1.0 μg/ml LPS; host or cells: THP-1 cells, LPS-primed, nigericin-stimulated; settings: LPS 1 μg/ml, nigericin 5 μM, resazurin read-out
T1 sequence (Q96P20 whole entry): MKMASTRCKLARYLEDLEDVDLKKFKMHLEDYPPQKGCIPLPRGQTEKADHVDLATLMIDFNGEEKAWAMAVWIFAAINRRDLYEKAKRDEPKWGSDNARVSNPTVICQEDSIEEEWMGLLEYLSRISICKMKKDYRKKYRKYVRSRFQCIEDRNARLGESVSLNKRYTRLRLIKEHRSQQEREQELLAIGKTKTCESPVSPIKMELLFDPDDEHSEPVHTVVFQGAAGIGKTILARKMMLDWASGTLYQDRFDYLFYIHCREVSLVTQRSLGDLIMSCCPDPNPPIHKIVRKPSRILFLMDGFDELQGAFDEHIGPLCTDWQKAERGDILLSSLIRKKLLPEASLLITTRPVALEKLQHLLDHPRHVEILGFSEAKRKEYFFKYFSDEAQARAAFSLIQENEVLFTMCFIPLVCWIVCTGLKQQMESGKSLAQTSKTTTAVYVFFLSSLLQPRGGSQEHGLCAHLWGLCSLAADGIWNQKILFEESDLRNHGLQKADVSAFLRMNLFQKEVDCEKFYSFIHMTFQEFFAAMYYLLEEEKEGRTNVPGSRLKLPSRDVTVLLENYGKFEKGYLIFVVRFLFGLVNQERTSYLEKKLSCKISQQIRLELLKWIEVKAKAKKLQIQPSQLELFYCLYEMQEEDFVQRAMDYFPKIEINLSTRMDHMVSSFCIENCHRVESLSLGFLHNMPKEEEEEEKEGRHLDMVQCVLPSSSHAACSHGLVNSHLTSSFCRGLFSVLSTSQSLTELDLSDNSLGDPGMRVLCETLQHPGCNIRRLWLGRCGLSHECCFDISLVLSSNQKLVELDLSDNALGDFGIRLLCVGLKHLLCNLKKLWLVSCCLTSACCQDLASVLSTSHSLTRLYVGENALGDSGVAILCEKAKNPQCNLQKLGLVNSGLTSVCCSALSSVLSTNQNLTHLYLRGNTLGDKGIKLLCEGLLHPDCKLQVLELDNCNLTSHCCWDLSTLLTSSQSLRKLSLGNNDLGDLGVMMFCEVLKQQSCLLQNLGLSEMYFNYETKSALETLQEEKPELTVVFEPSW
Method in brief: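 THP-1 cells (25,000/well) primed with 1 μg/ml LPS in serum-free RPMI, given compound (8-point half-log, 10 μM top, 0.1% DMSO) for 3 hrs, then nigericin 5 μM for 1 hr at 37° C. Viability of remaining cells read by resazurin (100 μM, 1–2 hrs) fluorescence; IC50 from 4-parameter fit.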

NLRP3 [3] = molecular target: T1, NLRP3; test: Human whole blood IL1β release assay; type: cell-based; parameters: Plate out 80 μl of whole blood containing 1 μg/ml of LPS; from tissue; host or cells: human whole blood from healthy donors, LPS-primed, nigericin-stimulated; settings: LPS 1 μg/ml, nigericin 10 μM, IL-1β AlphaLisa, read-out: HWB IC50
Experimental: For systemic delivery, the ability to inhibit NLRP3 when the compounds are present within the bloodstream is of great importance. For this reason, the NLRP3 inhibitory activity of a number of compounds in human whole blood was investigated in accordance with the following protocol.
Human whole blood in Li-heparin tubes was obtained from healthy donors from a volunteer donor panel. • 1. Plate out 80 μl of whole blood containing 1 μg/ml of LPS in 96-well, clear bottom cell culture plate (Corning #3585) • 2. Add […] compound (8 points half-log dilution with 10 μM top dose) or vehicle (DMSO 0.1% FAC) to the appropriate wells • 3. Incubate for 3 hrs at 37° C., 5% CO2 • 4. Add 10 μl Nigericin (Sigma #N7143) (10 μM FAC) to all wells • 5. Incubate for 1 hr at 37° C., 5 CO2 • 6. At the end of the incubation period, spin plates at 300×g for 5 mins to pellet cells and remove 20 μl of supernatant and add to 96-well v-bottom plates for […] analysis (note: these plates containing the supernatants can be stored at −80° C. to be analysed at a later date) • 7. IL-1β was measured according to the manufacturer protocol (Perkin Elmer-AlphaLisa IL-1 Kit AL220F-5000) • 8. IC50 data is fitted to anon-linear regression equation (log inhibitor vs response-variable slope 4-parameters)

AUC ([1]; intravenous, dose 1 mg/kg)	clearance ([1]; intravenous, dose 1 mg/kg)	half-life ([1]; intravenous, dose 1 mg/kg)	Vd ([1]; intravenous, dose 1 mg/kg)	IC50 (NLRP3 [2])	IC50 (NLRP3 [3])	Compound	other results
8620 ng·h/mL	1.9 mL/min/kg	3.4 h	0.43 L/kg	160 to 640 nM	800 to 1600 nM	O=C(Nc1c2c(cc3c1CCC3)CCC2)NS(=O)(=O)c1ccn(C2CCOC2)n1 (stereo not shown) [Example 1, N-((1,2,3,5,6,7-Hexahydro-s-indacen-4-yl)carbamoyl)-1-(tetrahydrofuran-3-yl)-1H-pyrazole-3-sulfonamide]	
1030 ng·h/mL	16.2 mL/min/kg	0.3 h	0.3 L/kg	160 to 640 nM	800 to 1600 nM	COCCn1ccc(S(=O)(=O)NC(=O)Nc2c3c(cc4c2CCC4)CCC3)n1 [Example 2, N-((1,2,3,5,6,7-Hexahydro-s-indacen-4-yl)carbamoyl)-1-(2-methoxyethyl)-1H-pyrazole-3-sulfonamide]	
3680 ng·h/mL	4.5 mL/min/kg	6.7 h	1.57 L/kg	40 to 160 nM	800 to 1600 nM	O=C(Nc1c2c(cc3c1CCC3)CCC2)NS(=O)(=O)c1ccn(CC2CCCO2)n1 (stereo not shown) [Example 3, N-((1,2,3,5,6,7-Hexahydro-s-indacen-4-yl)carbamoyl)-1-((tetrahydrofuran-2-yl)methyl)-1H-pyrazole-3-sulfonamide]	
7380 ng·h/mL	2.3 mL/min/kg	2.9 h	0.36 L/kg	40 to 160 nM	< 400 nM	C[C@H](O)Cn1ccc(S(=O)(=O)NC(=O)Nc2c3c(cc4c2CCC4)CCC3)n1 [Example 11, (S)—N-((1,2,3,5,6,7-Hexahydro-s-indacen-4-yl)carbamoyl)-1-(2-hydroxypropyl)-1H-pyrazole-3-sulfonamide]	
38700 ng·h/mL	0.4 mL/min/kg	3.6 h	0.09 L/kg	160 to 640 nM	< 400 nM	C[C@H](CO)n1ccc(S(=O)(=O)NC(=O)Nc2c3c(cc4c2CCC4)CCC3)n1 [Example 13, (R)—N-((1,2,3,5,6,7-Hexahydro-s-indacen-4-yl)carbamoyl)-1-(1-hydroxypropan-2-yl)-1H-pyrazole-3-sulfonamide]	
10200 ng·h/mL	1.8 mL/min/kg	3.8 h	0.41 L/kg	40 to 160 nM	400 to 800 nM	C[C@@H](O)Cn1ccc(S(=O)(=O)NC(=O)Nc2c3c(cc4c2CCC4)CCC3)n1 [Example 16, (R)—N-((1,2,3,5,6,7-Hexahydro-s-indacen-4-yl)carbamoyl)-1-(2-hydroxypropyl)-1H-pyrazole-3-sulfonamide]	AUC ([1]; oral, dose 3 mg/kg): 19600 ng·h/mL; CL/F ([1]; oral, dose 3 mg/kg): 2.6 mL/min/kg; Cmax ([1]; oral, dose 3 mg/kg): 3960 ng/mL; Tmax ([1]; oral, dose 3 mg/kg): 0.83 h; bioavailability ([1]; oral, dose 3 mg/kg): 63.8%; half-life ([1]; oral, dose 3 mg/kg): 3.2 h
7030 ng·h/mL	2.4 mL/min/kg	3.5 h	0.37 L/kg	40 to 160 nM	< 400 nM	O=C(Nc1c2c(cc3c1CCC3)CCC2)NS(=O)(=O)c1ccn(C2(CO)CCC2)n1 [Example 24, N-((1,2,3,5,6,7-Hexahydro-s-indacen-4-yl)carbamoyl)-1-(1-(hydroxymethyl)cyclobutyl)-1H-pyrazole-3-sulfonamide]	

The next lines start with the compound.

Compound	AUC ([1]; intravenous, dose 1 mg/kg)	clearance ([1]; intravenous, dose 1 mg/kg)	half-life ([1]; intravenous, dose 1 mg/kg)	Vd ([1]; intravenous, dose 1 mg/kg)	IC50 (NLRP3 [2])	IC50 (NLRP3 [3])	other results
CC(O)C(C)n1ccc(S(=O)(=O)NC(=O)Nc2c3c(cc4c2CCC4)CCC3)n1 (racemic) [Example 23, N-((1,2,3,5,6,7-Hexahydro-s-indacen-4-yl)carbamoyl)-1-(3-hydroxybutan-2-yl)-1H-pyrazole-3-sulfonamide]	20100 ng·h/mL	0.8 mL/min/kg	2.6 h	0.12 L/kg	40 to 160 nM	< 400 nM	
CC(O)C(C)n1ccc(S(=O)(=O)NC(=O)Nc2c3c(cc4c2CCC4)CCC3)n1 (racemic) [Example 26, N-((1,2,3,5,6,7-Hexahydro-s-indacen-4-yl)carbamoyl)-1-(3-hydroxybutan-2-yl)-1H-pyrazole-3-sulfonamide]					40 to 160 nM	< 400 nM	AUC ([1]; intravenous, dose 1.74 mg/kg): 8060 ng·h/mL; clearance ([1]; intravenous, dose 1.74 mg/kg): 4.2 mL/min/kg; half-life ([1]; intravenous, dose 1.74 mg/kg): 3.6 h; Vd ([1]; intravenous, dose 1.74 mg/kg): 0.6 L/kg
CC(C)(O)Cn1ccc(S(=O)(=O)NC(=O)Nc2c3c(cc4c2CCC4)CCC3)n1 [Example 10, N-((1,2,3,5,6,7-Hexahydro-s-indacen-4-yl)carbamoyl)-1-(2-hydroxy-2-methylpropyl)-1H-pyrazole-3-sulfonamide]	4290 ng·h/mL	3.9 mL/min/kg	2.9 h	0.61 L/kg	40 to 160 nM	400 to 800 nM	AUC ([1]; oral, dose 3 mg/kg): 9660 ng·h/mL; CL/F ([1]; oral, dose 3 mg/kg): 5.2 mL/min/kg; Cmax ([1]; oral, dose 3 mg/kg): 1770 ng/mL; Tmax ([1]; oral, dose 3 mg/kg): 0.29 h; bioavailability ([1]; oral, dose 3 mg/kg): 75%; half-life ([1]; oral, dose 3 mg/kg): 3.5 h
COC1(c2cc(S(=O)(=O)NC(=O)Nc3c4c(cc5c3CCC5)CCC4)nn2C2CC2)COC1 [Example 38, 1-Cyclopropyl-N-((1,2,3,5,6,7-hexahydro-s-indacen-4-yl)carbamoyl)-5-(3-methoxyoxetan-3-yl)-1H-pyrazole-3-sulfonamide]	3880 ng·h/mL	4.6 mL/min/kg	1.1 h	0.35 L/kg	< 40 nM	< 400 nM	
COC1(c2cc(S(=O)(=O)NC(=O)Nc3c4c(cc5c3CCC5)CCC4)nn2C(C)C)COC1 [Example 42, N-((1,2,3,5,6,7-Hexahydro-s-indacen-4-yl)carbamoyl)-1-isopropyl-5-(3-methoxyoxetan-3-yl)-1H-pyrazole-3-sulfonamide]	2960 ng·h/mL	5.6 mL/min/kg	0.7 h	0.24 L/kg	< 40 nM	< 400 nM	
C[C@@H](O)Cn1ccc(S(=O)(=O)NC(=O)Nc2c(-c3ccnc(C#N)c3)ccc3c2CCC3)n1 [Example 92]					< 40 nM	< 400 nM	
CC(C)(O)Cn1ccc(S(=O)(=O)NC(=O)Nc2c(-c3ccnc(C#N)c3)ccc3c2CCC3)n1 [Example 93]					< 40 nM	< 400 nM	
COc1cc(-c2ccc3c(c2NC(=O)NS(=O)(=O)c2ccn(C[C@@H](C)O)n2)CCC3)ccn1 [Example 94]					< 40 nM	< 400 nM	
COc1cc(-c2ccc3c(c2NC(=O)NS(=O)(=O)c2ccn(CC(C)(C)OC)n2)CCC3)ccn1 [Example 95]					< 40 nM	< 400 nM	
COc1cc(-c2ccc3c(c2NC(=O)NS(=O)(=O)c2ccn(CC(C)(C)O)n2)CCC3)ccn1 [Example 96]					< 40 nM	< 400 nM	
COc1cc(-c2ccc3c(c2NC(=O)NS(=O)(=O)c2ccn(C4CCOC4)n2)CCC3)ccn1 (stereo not shown) [Example 97]					40 to 160 nM	< 400 nM	
COc1cc(-c2ccc3c(c2NC(=O)NS(=O)(=O)c2cc(C4(OC)COC4)n(C)n2)CCC3)ccn1 [Example 98]					< 40 nM	< 400 nM	
C[C@@H](O)Cn1cc(S(=O)(=O)NC(=O)Nc2c3c(cc4c2CCC4)CCC3)nn1 [Example 103]					160 to 640 nM	800 to 1600 nM	
O=C(Nc1c2c(cc3c1CCC3)CCC2)NS(=O)(=O)c1ccn(C[C@@H](O)CO)n1 [Example 104]					160 to 640 nM	800 to 1600 nM	
CC(C)(O)Cn1ccc(S(=O)(=O)NC(=O)Nc2c3c(c(F)c4c2CCC4)CCC3)n1 [Example 106]					< 40 nM	400 to 800 nM	
COC1CN(CC(C)(C)n2ccc(S(=O)(=O)NC(=O)Nc3c4c(cc5c3CCC5)CCC4)n2)C1 [Example 107]					40 to 160 nM	800 to 1600 nM	
